What was measured:
S1P1 [1] = molecular target: T1, S1P1 (Homo sapiens, UniProt P21453); assay: CNG cAMP Assay (Assay 1); type: cell-based; parameters: host or cells: HEK293 cells expressing the CNG channel; conditions: read-out: Assay 1 EC50
Summary of the method: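 cAMP-gated CNG membrane-potential read-out (350/590 nm, T90/T0 ratio) in S1P1/CNG HEK293 cells after 90 min with compound plus NECA 500 nM, S1P 10 nM (EC95), Ro 20-1724 25 μM. Ten 3-fold points from 10 μM, 1.8% DMSO; percent activity vs NECA-only control gives EC50.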
Target sequence in this assay (P21453 whole entry): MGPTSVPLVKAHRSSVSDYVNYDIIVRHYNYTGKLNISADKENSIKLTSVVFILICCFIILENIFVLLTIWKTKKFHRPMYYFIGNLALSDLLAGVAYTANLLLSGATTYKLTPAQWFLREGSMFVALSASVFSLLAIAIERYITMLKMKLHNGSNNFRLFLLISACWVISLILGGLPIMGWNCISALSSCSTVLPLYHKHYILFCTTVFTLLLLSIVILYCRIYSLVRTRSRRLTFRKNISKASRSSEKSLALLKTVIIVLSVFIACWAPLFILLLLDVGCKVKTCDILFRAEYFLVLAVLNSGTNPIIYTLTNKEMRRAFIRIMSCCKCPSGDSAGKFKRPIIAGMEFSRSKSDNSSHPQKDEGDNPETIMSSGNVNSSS

S1P1 [2] = molecular target: T1, S1P1; assay: Tango β-arrestin Recruitment Assay in HEK293 cells (Assay 2a); type: cell-based; parameters: linker with TEV protease (N1a) cleavage site (C); host or cells: HEK293, transiently transfected; conditions: Tango β-arrestin Recruitment Assay, read-out: Assay 2a EC50
Text: For the Tango™ β-arrestin recruitment assay, the cytoplasmic C-terminus of S1P1 is tethered to the tTA transcriptional activator with a linker that contains a cleavage site for the N1a protease from tobacco etch virus (TEV protease). The C-terminus of the human β-arrestin2 protein is fused to TEV protease. Binding of an agonist recruits the β-arrestin-TEV fusion protein to the receptor resulting in cleavage of the linker and release of tTA to enter the nucleus and subsequently activate a tTA-dependent luciferase reporter gene.
Frozen HEK293 cells transiently transfected with receptor cDNAs for S1P1 (Invitrogen) were thawed and suspended in 10 mL of Pro293a-CDM culture medium (Invitrogen) supplemented with 4 mM L-Glutamine (Invitrogen), 1× Pen/Strep (100 units/mL penicillin and 100 μg/mL streptomycin, Invitrogen) and 0.1% fatty acid free BSA (Sigma-Aldrich). Cells were added to the wells of a 384-well white opaque bottom assay plate (PerkinElmer) at 3,000-6,000 cells per well and the plate was incubated for approximately 4 h in a 37° C. incubator. Test compounds were tested at maximum concentrations of 10 μM for the agonist assays. Compounds were diluted in DMSO (10 concentration points, 3-fold each) and added to the assay plate at a 1% final DMSO concentration. For each compound, there were duplicate assay plates and each assay plate had duplicate wells per concentration point. The plate was incubated at 37° C. for 30 min. The efficacy control was 5 μM S1P (Avanti). Following agonist addition, the assay plates were incubated in a 37° C. incubator for 16-18 h. Luciferase assay reagent was added and luminescence measured in an EnVision plate reader (PerkinElmer). To determine agonist activity, percent activity was calculated as [(test compound−background)/(positive control−background)* 100], where background is the luminescence of the DMSO alone control and the positive control is the luminescence from cells incubated with the efficacy control 5 μM S1P. The percent activities were plotted against compound concentration to determine EC50 using XLFit (IDBS).
Assay 1 is the CNG cAMP Assay as described in Biological Example 1. Assay 2a and 2b are the Tango™ β-arrestin Recruitment Assay in HEK293 and U2OS cells, respectively, as described in Biological Example 2. Assay 3a is the hS1P1R GTPγS Binding Assay as described in Biological Example 3. Assay 3b is the GTP-Eu Binding Assay as described in Biological Example 3. EC50's were measured unless otherwise noted. […] In the table, “nt” means the Compound was not tested and “no” means the compound was tested but had no measurable activity under the assay conditions employed.
Target sequence in this assay (P21453 whole entry): as above
Target sequence in this assay (P32121 whole entry partner): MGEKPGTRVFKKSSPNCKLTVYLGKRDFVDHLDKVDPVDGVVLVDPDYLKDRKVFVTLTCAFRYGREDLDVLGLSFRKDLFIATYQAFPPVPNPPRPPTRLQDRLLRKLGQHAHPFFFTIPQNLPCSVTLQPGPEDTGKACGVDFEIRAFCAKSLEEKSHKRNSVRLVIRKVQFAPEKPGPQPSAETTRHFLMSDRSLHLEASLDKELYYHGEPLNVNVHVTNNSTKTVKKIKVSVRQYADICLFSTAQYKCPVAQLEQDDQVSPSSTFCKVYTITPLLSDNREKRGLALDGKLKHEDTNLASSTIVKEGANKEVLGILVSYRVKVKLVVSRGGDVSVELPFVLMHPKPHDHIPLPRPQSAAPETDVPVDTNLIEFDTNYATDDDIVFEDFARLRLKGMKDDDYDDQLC

SMILES	EC50 (S1P1 [1]) [µM]	EC50 (S1P1 [2]) [µM]
Cc1cc(CC(C)C(=O)O)ccc1-c1noc(-c2cn3cc(C(F)(F)F)cc(Cl)c3n2)n1 (stereo not shown) [Example 180, 3-(4-{5-[8-chloro-6-(trifluoromethyl)imidazo[1,2-a]pyridin-2-yl]-1,2,4-oxadiazol-3-yl}-3-methylphenyl)-2-methylpropanoic acid]	≤ 0.1	0.1 to 0.5
O=C(O)CCc1ccc(-c2noc(-c3cn4cc(C(F)(F)F)cc(Cl)c4n3)n2)c(F)c1 [Entry 19]	≤ 0.1	0.1 to 0.5
CC(CC(=O)O)c1ccc(-c2noc(-c3cn4cc(C(F)(F)F)cc(Br)c4n3)n2)c(Cl)c1 (stereo not shown) [Example 266, 3-(4-{5-[8-bromo-6-(trifluoromethyl)imidazo[1,2-a]pyridin-2-yl]-1,2,4-oxadiazol-3-yl}-3-chlorophenyl)butanoic acid]	≤ 0.1	0.1 to 0.5
N#CC(CC(=O)O)c1ccc(-c2noc(-c3cn4cc(C(F)(F)F)cc(Cl)c4n3)n2)c(Cl)c1 (stereo not shown) [Example 267, 3-(3-chloro-4-{5-[8-chloro-6-(trifluoromethyl)imidazo[1,2-a]pyridin-2-yl]-1,2,4-oxadiazol-3-yl}phenyl)-3-cyanopropanoic acid]	≤ 0.1	0.1 to 0.5
O=C(O)CCc1c(Cl)cc(-c2nc(-c3cn4cc(C(F)(F)F)cc(Cl)c4n3)no2)cc1Cl [Example 314, 3-(2,6-dichloro-4-{3-[8-chloro-6-(trifluoromethyl)imidazo[1,2-a]pyridin-2-yl]-1,2,4-oxadiazol-5-yl}phenyl)propanoic acid]	≤ 0.1	≤ 0.1
Cc1cc(NS(C)(=O)=O)ccc1-c1noc(-c2cn3cc(C(F)(F)F)cc(Cl)c3n2)n1 [Example 98, N-(4-{5-[8-chloro-6-(trifluoromethyl)imidazo[1,2-a]pyridin-2-yl]-1,2,4-oxadiazol-3-yl}-3-methylphenyl)methanesulfonamide]	≤ 0.1	≤ 0.1
FC(F)(F)c1cc(Br)c2nc(-c3nc(-c4ccccc4Cl)no3)cn2c1 [Example 159, 8-bromo-2-[3-(2-chlorophenyl)-1,2,4-oxadiazol-5-yl]-6-(trifluoromethyl)imidazo[1,2-a]pyridine]	≤ 0.1	0.1 to 0.5
CS(=O)(=O)Cc1ccc(-c2noc(-c3cn4cc(C(F)(F)F)cc(Cl)c4n3)n2)c(Cl)c1 [Example 275, 8-chloro-2-(3-{2-chloro-4-[(methylsulfonyl)methyl]phenyl}-1,2,4-oxadiazol-5-yl)-6-(trifluoromethyl)imidazo[1,2-a]pyridine]	≤ 0.1	0.1 to 0.5
OCCC(O)c1ccc(-c2noc(-c3cn4cc(C(F)(F)F)cc(Cl)c4n3)n2)c(Cl)c1 (stereo not shown) [Example 272, 1-(3-chloro-4-{5-[8-chloro-6-(trifluoromethyl)imidazo[1,2-a]pyridin-2-yl]-1,2,4-oxadiazol-3-yl}phenyl)propane-1,3-diol]	≤ 0.1	0.1 to 0.5
O=C(O)CCc1cc(Cl)c(-c2nnc(-c3cn4cc(C(F)(F)F)cc(Cl)c4n3)o2)cc1F [Example 282, 3-(5-chloro-4-{5-[8-chloro-6-(trifluoromethyl)imidazo[1,2-a]pyridin-2-yl]-1,3,4-oxadiazol-2-yl}-2-fluorophenyl)propanoic acid]	≤ 0.1	≤ 0.1
O=C(O)[C@H]1C[C@H](Oc2ccc(-c3noc(-c4cn5cc(C(F)(F)F)cc(Cl)c5n4)n3)c(Cl)c2)CN1 [Example 97, (4S)-4-[(3-chloro-4-{5-[8-chloro-6-(trifluoromethyl)imidazo[1,2-a]pyridin-2-yl]-1,2,4-oxadiazol-3-yl}phenyl)oxy]-D-proline]	≤ 0.1	≤ 0.1
OCCOc1ccc(-c2nnc(-c3cn4cc(C(F)(F)F)cc(Cl)c4n3)s2)c(Cl)c1 [Example 243, 2-[(3-chloro-4-{5-[8-chloro-6-(trifluoromethyl)imidazo[1,2-a]pyridin-2-yl]-1,3,4-thiadiazol-2-yl}phenyl)oxy]ethanol]	≤ 0.1	0.1 to 0.5
NC(=O)CCc1ccc(-c2noc(-c3cn4cc(C(F)(F)F)cc(Cl)c4n3)n2)c(Cl)c1 [Entry 20]	≤ 0.1	≤ 0.1
Fc1ccccc1-c1noc(-c2cn3cc(C(F)(F)F)cc(Cl)c3n2)n1 [Example 142, 8-chloro-2-[3-(2-fluorophenyl)-1,2,4-oxadiazol-5-yl]-6-(trifluoromethyl)imidazo[1,2-a]pyridine]	0.1 to 0.5	0.5 to 1
NCC(O)COc1cc(Cl)c(-c2noc(-c3cn4cc(C(F)(F)F)cc(Cl)c4n3)n2)cc1F (stereo not shown) [Example 216, 1-amino-3-[(5-chloro-4-{5-[8-chloro-6-(trifluoromethyl)imidazo[1,2-a]pyridin-2-yl]-1,2,4-oxadiazol-3-yl}-2-fluorophenyl)oxy]propan-2-ol]	≤ 0.1	≤ 0.1

More lines, now with the values ahead:

EC50 (S1P1 [1]) [µM]	EC50 (S1P1 [2]) [µM]	SMILES
≤ 0.1	0.1 to 0.5	CC(Cc1cc(Cl)c(-c2noc(-c3cn4cc(C(F)(F)F)cc(Cl)c4n3)n2)cc1F)C(=O)O (stereo not shown) [Example 203, 3-(5-chloro-4-{5-[8-chloro-6-(trifluoromethyl)imidazo[1,2-a]pyridin-2-yl]-1,2,4-oxadiazol-3-yl}-2-fluorophenyl)-2-methylpropanoic acid]
≤ 0.1	0.1 to 0.5	N#Cc1cc(Br)c2nc(-c3nc(-c4cc(F)c(CCC(=O)O)cc4Cl)no3)cn2c1 [Entry 47]
≤ 0.1	0.1 to 0.5	O=C(O)CCc1cc(Cl)c(-c2noc(-c3cn4cc([N+](=O)[O-])cc(Cl)c4n3)n2)cc1F [Entry 36]
≤ 0.1	≤ 0.1	O=C(O)CCc1cc(Cl)c(-c2noc(-c3cn4cc(I)ccc4n3)n2)cc1F [Entry 31]
≤ 0.1	0.1 to 0.5	Cc1cc(C#N)c2nc(-c3nc(-c4cc(F)c(CCC(=O)O)cc4Cl)no3)cn2c1 [Example 160, 3-{5-chloro-4-[5-(8-cyano-6-methylimidazo[1,2-a]pyridin-2-yl)-1,2,4-oxadiazol-3-yl]-2-fluorophenyl}propanoic acid]
≤ 0.1	≤ 0.1	Cc1cc(Cl)c2nc(-c3nc(-c4cc(F)c(CCC(=O)O)cc4Cl)no3)cn2c1 [Entry 28]
≤ 0.1	≤ 0.1	O=C(O)CCc1cc(Cl)c(-c2noc(-c3cn4cc(Br)cc(Cl)c4n3)n2)cc1F [Entry 64]
≤ 0.1	≤ 0.1	Cc1cc(Br)c2nc(-c3nc(-c4cc(F)c(CCC(=O)O)cc4Cl)no3)cn2c1 [Entry 25]

From patent US20100160369A1, “S1P1 Agonists and Methods of Making And Using” (EXELIXIS, INC., priority 2008, published 2010)
